Measurements from patent US20050257280A1, “Nonhuman model animal nonresponsive to endotoxin and lipoprotein or lipopeptide” (priority 2002, published 2005).

Key:
Type in all cases: cell-based, mouse
ERK1/2, JNK and p38 = experiment: Activation of MAP kinases in peritoneal macrophages (Western blot); conditions: LPS 100 ng/ml, MALP-2 3 ng/ml, R848 100 nM, 10 min and 20 min
Description: Next, peritoneal macrophages from wild-type and TIRAP^−/− mice were stimulated with 100 ng/ml of LPS, 3 ng/ml of MALP-2, and 100 nM of R848 for 10 min and 20 min, respectively. The cells were then lysed in the lysis buffer containing 1.0% Nonidet P-40, 150 mM NaCl, 20 mM tris-C1 (pH 7.5), 5 mM EDTA and protease inhibitor cocktail (Roche). The cell lysates were dissolved by SDS-PAGE and transferred onto a PVDF membrane (BioRad). The above-mentioned PVDF membrane was blotted with […] specific to ERK1/2, JNK, and p38 (Santa Cruz), and […] specific to phosphorylated ERK 1/2, phosphorylated JNK, and phosphorylated p38 (Cell Signaling) and Western blot analysis was conducted by visualizing with an enhanced chemiluminescence system (NEN Life Science Product) (FIG. 12). […] The result is quite similar to those observed in MyD88^−/− mice (Kawai et al.: Immunity 11: 115-22; 1999).

IRAK-1 = IRAK-1 in vitro kinase assay on lysates of stimulated peritoneal macrophages
Description: IRAK-1 is activated in the downstream of MyD88. […] In vitro kinase assay was conducted as described previously (Sato et al. II), and kinase activation of IRAK-1 was measured. The same lysates were blotted with anti-IRAK-1 antibody, and the effect of IRAK-1 was analyzed (FIG. 13).

[1] = system: peritoneal macrophages from wild-type and TIRAP−/− mice; experiment: Inflammatory cytokine production of peritoneal macrophages (ELISA of culture supernatant); conditions: LPS 1 ng/ml 24 hr, MALP-2 and PGN at various concentrations
Description: Next, LPS-induced inflammatory cytokine production of peritoneal macrophages from wild-type and TIRAP^−/− mice was analyzed. 2 ml of 4% thioglycollate medium (DIFCO) were intraperitoneally injected into TIRAP^−/− and wild-type mice, respectively. Three days later, peritoneal exudate cells were isolated from peritoneal cavity of each mouse. The cells were cultured for 2 hr at 37° C. in RPMI 1640 medium (GIBCO) supplemented with 10% fetal bovine serum (GIBCO), nonadherent cells were removed by washing with Hank's buffered salt solution: HBSS; GIBCO) at ice temperature, and adherent cells were used as peritoneal macrophages. Each obtained peritoneal macrophage was cultured with 1 ng/ml of Re-595 LPS for 24 hr, and concentration of IL-6, TNF-α and IL-12 in the culture supernatant was measured according to a common procedure by ELISA (FIG. 7; means±SD of triplicates, N.D. Not detected).
IL-6, TNF-α and IL-12 in the culture supernatant were measured using mycoplasmal lipopeptide MALP-2 being TLR2 ligand (synthesized and purified as described in Takeuchi-MALP) and Staphylococcus aureus peptidoglycan (PGN) (Fluka) at various concentrations (FIG. 9). […] Next, peritoneal macrophages of wild-type and TIRAP^−/− mice were stimulated with Poly I:C being TLR3 ligand (Amersham) for 4 hr and 8 hr. Total RNA was extracted, and the expression of IFN-β mRNA was analyzed by Northern blot method. […]

NF-κB = NF-κB DNA binding in nuclear extracts of peritoneal macrophages (EMSA); conditions: LPS 100 ng/ml, MALP-2 3 ng/ml, R-848 10 nM
IFN-β mRNA = experiment: Expression of IFN-β mRNA in peritoneal macrophages (Northern blot); conditions: stimulated 4 hr and 8 hr
Description: IL-6, TNF-α and IL-12 in the culture supernatant were measured using mycoplasmal lipopeptide MALP-2 being TLR2 ligand (synthesized and purified as described in Takeuchi-MALP) and Staphylococcus aureus peptidoglycan (PGN) (Fluka) at various concentrations (FIG. 9). […] Next, peritoneal macrophages of wild-type and TIRAP^−/− mice were stimulated with Poly I:C being TLR3 ligand (Amersham) for 4 hr and 8 hr. Total RNA was extracted, and the expression of IFN-β mRNA was analyzed by Northern blot method. At that time, 18S ribosomal RNA was used as control. Expression of IFN-β mRNA was induced in both wild-type and TIRAP^−/− mice (FIG. 10).

[2] = system: splenocytes from wild-type and TIRAP−/− mice; experiment: Proliferation of splenocytes in the presence of IL-1, PHA or both ([3H]-thymidine uptake); conditions: 100 U/ml IL-1β, 10 ng/ml PHA, 72 hr + 12 hr
Excerpt: As shown in MyD88-, TRAF6-, and IRAK-4-deficient mice, signaling pathway via IL-1 receptor family utilizes the same signaling pathway as that of TLRs (Adachi et. al., Immunity. 9, 143-150, 1998; Lomaga et al., Gene Dev. 13, 1015-24, 1999; Naito et al., Gene Cells 4, 353-62, 1999; Suzuki et al., Nature 416, 750-56, 2002). To investigate the proliferation of splenocytes from TIRAP^−/− mice induced by IL-1 or Phytohemagglutinin (PHA) being co-stimulatory substance with IL-1, splenocytes from wild-type and TIRAP^−/− mice were cultured for 72 hr and proliferated in the presence of 100 U/ml of IL-1β, and of 10 ng/ml of PHA, and in the co-presence of IL-1β and PHA, then supplemented with 1 μCi of [^3H]-thymidine, further cultured for 12 hr, and measured the uptake of [^3H] with a β scintillation counter. Proliferation of splenocytes was determined by measuring the [^3H] level of [^3H] thymidine ingested into a cell.

[3] = TIRAP−/− peritoneal macrophages
[4] = wild-type peritoneal macrophages

Row | Compound | phosphorylation/activation of ERK1/2, JNK and p38 (ERK1/2, JNK and p38; wild-type macrophages) | autophosphorylation (Auto) of IRAK-1 (IRAK-1; TIRAP−/− macrophages) | autophosphorylation (Auto) of IRAK-1 (IRAK-1; wild-type macrophages) | proliferation of splenocytes (uptake of [3H]-thymidine) ([2]; TIRAP−/− splenocytes) | proliferation of splenocytes (uptake of [3H]-thymidine) ([2]; wild-type splenocytes) | also measured
1 | CCOCc1nc2c(N)nc3ccccc3c2n1CC(C)(C)O [R-848] | phosphorylated and activation was induced | autophosphorylation was induced | induced autophosphorylation |  |  | 
2 | MALP-2 | phosphorylated and activation was induced | not observed | induced autophosphorylation |  |  | production of IL-6, TNF-α and IL-12 [1, 3]: severely impaired; production of IL-6, TNF-α and IL-12 [1, 4]: dose-dependent production; NF-κB DNA binding effect (NF-κB; TIRAP−/− macrophages, LPS at 10 min): significantly inhibited; NF-κB DNA binding effect (NF-κB; wild-type macrophages, LPS and MALP-2 at 10 min): observed; phosphorylation/activation of ERK1/2, JNK and p38 (ERK1/2, JNK and p38; TIRAP−/− macrophages): not observed
3 | Poly I:C |  |  |  |  |  | expression of IFN-β mRNA (IFN-β mRNA; [3]): induced; expression of IFN-β mRNA (IFN-β mRNA; [4]): induced
4 | Phytohemagglutinin [PHA] |  |  |  | enhanced proliferation | enhanced proliferation | 
5 | IL-1: Interleukin-1 cytokine, used as IL-1β at 100 U/ml |  |  |  | enhanced proliferation | enhanced proliferation | 
